Assay results from patent publication US5232924A, “Heterocyclic compound having serotonine 2-receptor antagonistic activity” (Daiichi Pharmaceutical Co., Ltd., priority 1989, dated 1993).
Where a name gives a salt, the structure may show the parent alone.

Columns and labels:
[1] = target: T1, Serotonin 2-Receptor (Rattus norvegicus, UniProt P14842); test: Antagonistic activity on serotonin 2-receptor: inhibition of the serotonin-induced increase in blood pressure in anesthetized rats; type: in vivo; conditions: SD-SLC male rat, 10 mg/kg p.o., inhibition of blood pressure increase by serotonin 300 μg/kg i.v.
T1 construct: from tissue; host or cells: intact anesthetized SD-SLC male rat (vascular response)
T1 sequence (P14842 whole entry): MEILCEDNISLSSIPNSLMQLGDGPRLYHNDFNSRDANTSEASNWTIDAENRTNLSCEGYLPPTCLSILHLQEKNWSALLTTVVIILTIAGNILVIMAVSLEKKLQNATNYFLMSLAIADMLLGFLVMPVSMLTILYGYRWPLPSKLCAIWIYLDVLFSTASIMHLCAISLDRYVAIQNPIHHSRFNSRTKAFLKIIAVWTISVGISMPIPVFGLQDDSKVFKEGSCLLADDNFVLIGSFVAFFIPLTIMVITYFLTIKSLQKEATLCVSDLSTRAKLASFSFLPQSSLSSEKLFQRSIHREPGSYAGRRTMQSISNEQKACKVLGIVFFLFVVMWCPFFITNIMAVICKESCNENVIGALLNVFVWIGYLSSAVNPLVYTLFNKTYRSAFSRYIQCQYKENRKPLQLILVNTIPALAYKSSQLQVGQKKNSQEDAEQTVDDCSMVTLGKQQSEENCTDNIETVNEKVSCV
Method: A test compound dissolved in purified water was orally administered to an SD-SLC male rat at a dose of 10 mg/kg. After 30 minutes from the administration, the rat was anesthetized with urethane (1 g/kg, i.p.) and α-Chloralose (80 mg/kg, i.p.). A polyethylene cannula was inserted into the carotid artery, and the blood pressure was recorded on a polygraph by using a pressure transducer. After 60 minutes or 180 minutes from the administration of the test compound, 300 μg/kg of serotonin was intravenously injected, and an increase in blood pressure was observed. Serotonin 2 (hereinafter referred to as […]) antagonistic activity of the test compound was calculated as a percentage of inhibition of an increase in blood pressure induced by […]. The inhibitory effect of the test compound wa compared with that of vehicle solution treated group.

[2] = test system: Sympathetic Nerve α1 -Receptor; test: Antagonistic activity on sympathetic nerve α1-receptor: inhibition of the phenylephrine-induced increase in blood pressure in anesthetized rats; type: in vivo; conditions: SD-SLC male rat, 10 mg/kg p.o.; after 60 minutes from the administration; inhibition of blood pressure increase by phenylephrine 100 μg/kg i.v.
Method: A test compound dissolved in purified water was orally administered to an SD-SLC male rat at a dose of 10 mg/kg. After 30 minutes from the administration, the rat was anesthetized with urethane (1 g/kg, i.p.) and α-Chloralose (80 mg/kg, i.p.). A polyethylene cannula was inserted into the carotid artery, and the blood pressure was recorded on a polygraph by using a pressure transducer. After 60 minutes from the administration of the test compound, 100 μg/kg of phenylephrine was intravenously injected to observe an increase in blood pressure. Sympathetic nerve α1 -receptor antagonistic activity of the test compound was calculated as a percentage of inhibition of an increase in blood pressure induced by phenylephrine. The inhibitory effect of the test compound was compared with that of vehicle solution treated group.

[3] = test system: Mongrel dogs; test: Acute cardiac infarction model: LDA ligature and reperfusion in dogs; type: in vivo; conditions: dog, 1 mg/kg/hr intravenous drip, mean ± S.E.M.
Method: Mongrel dogs (body weight: 8 to 20 kg) under anesthesia were ventilated artificially and underwent a left thracotomy. […] A polyethylene cannula was inserted into the femoral artery, and the blood pressure and heart rate were recorded A cannula was inserted into the […] of a drug and also into the carotid artery from which a blood sample was to be taken. After stabilization period of the test preparation, LDA was ligated with a clamp. After 2 hours from the ligature, the clamp was released for reperfusion. After observation for the following 4 hours, the heart was excised. […] Then, the heart was washed and sliced at 1 cm intervals from the apex in the direction vertical to the longer axis. Each slice at the left ventricle was divided into a part which was in risk of cardiac infarction indicated by Evans' Blue stain (hereinafter referred to as risk area) and a normal area, and each area was weighed. The weight of the left ventricle (the sum of the risk area and the normal area) and that of the risk area of each slice were individually added up to obtain the weight of the whole left ventricle and the total weight of the risk area. Further, of each slice, the area of the risk area which was not stained with Evans' Blue and that of a cardiac infarction area within the risk area which remained white, i.e., which was stained neither in blue with Evans' Blue nor in red with triphenyltetrazolium chloride, were measured to obtain a ratio of cardiac infarction part to the whole left ventricle (infarction size). […] The experiment was conducted for the following groups.

[4] = test system: ddy male mice; test: Toxicity in mice, repeated oral administration; type: in vivo, mouse
Method: A test compound dissolved or suspended in a 1% methyl cellulose solution was orally administered to ddy male mice (4 or 5 mice per group) at a dose of 200 mg/kg once a day for consecutive 4 days. The number of dead animals per group was counted on the day next to the final administration day. As a control, 10 mλ/kg of 1% methyl cellulose solution was orally administered.

[5] = test system: Mongrel dogs; test: Angina pectoris model: partial LDA occlusion with cyclic coronary flow reduction in dogs; type: in vivo; conditions: dog, 0.1 mg/kg i.v. (maleate); mean ± S.E.M.; before admin. 9.9 ± 2.5
Method: Mongrel dogs (body weight: 8 to 20 kg) under anesthesia with pentobarbital (30 mg/kg, i.v.) were ventilated artificially and underwent a left thoracotomy. LDA was separated from connected tissues. A silicone tube for partial occlusion was placed around the LDA, and a probe for blood flow rate measurement was fixed in the neighborhood. The blood flow rate was measured with a pulse Doppler blood flow meter. A cannula was inserted into a branch distal to the occlusion site of the left coronary artery, and the coronary blood pressure was measured. A polyethylene cannula was inserted into the femoral artery, and the systemic blood pressure and heart rate were recorded. A cannula was inserted to the femoral vein for administration of a drug.
The effect of the drug was expressed in terms of frequency of the periodic reduction of blood flow rate.

[6] = test system: rats; test: Toxicity in rats, oral administration for 10 days; type: in vivo, rat; conditions: 5 test animals
[7] = test system: Sympathetic Nerve α1 -Receptor; test: Antagonistic activity on sympathetic nerve α1-receptor: inhibition of the phenylephrine-induced increase in blood pressure in anesthetized rats; type: in vivo; conditions: SD-SLC male rat, 10 mg/kg p.o.; after 180 minutes from the administration; inhibition of blood pressure increase by phenylephrine 100 μg/kg i.v.
[8] = after 60 minutes from the administration
[9] = ddy male mice, 200 mg/kg p.o. once a day for consecutive 4 days, dead animals per group

| Compound | Antagonistic Activity 5-HT2 (%) [1, 8] | Antagonistic Activity α1 (%) [2] | Toxicity (Death Rate) [4, 9] | other results |
| --- | --- | --- | --- | --- |
| O=C(O)/C=C\C(=O)O.O=C(c1ccc(F)cc1)[C@@H]1CCN(CCn2nc3n(c2=O)CCCC3)C[C@H]1c1ccc(F)cc1 (relative stereo) [Example 67, 2-[2-[trans-3-(4-Fluorophenyl)-4-(4-fluorobenzoyl)piperidin-1-yl]ethyl]-5,6,7,8-tetrahydro-3H-1,2,4-triazolo[4,3-a]pyridin-3(2H)-one Maleate] | 90% | 4% |  |  |
| Cl.O=C(c1ccc(F)cc1)C1CCN(CCn2c(=O)nc3n(c2=O)CCCC3)CC1 [Example 2, 3-[2-[4-(4-Fluorobenzoyl)piperidin-1-yl]ethyl]-6,7,8,9-tetrahydro-2H-pyrido[1,2-a]-1,3,5-triazine-2,4(3H)-dione Hydrochloride] | 93% | 9% | 1/5 | Myocardial Blood Flow ([3]; after 2 h ligature and reperfusion, control 62 ± 9): 89 ± 14 ml/min/100 g; Infarction Size (%) ([3]; ratio of cardiac infarction part to the whole left ventricle, control 30 ± 7): 11 ± 3% |
| O=C(c1ccc(F)cc1)C1CCN(CCn2c(=O)nc3n(c2=O)CCCC3)CC1 [Example 3, 3-[2-[4-(4-Fluorobenzoyl)piperidin-1-yl]ethyl]-6,7,8,9-tetrahydro-2H-pyrido1,2-a]-1,3,5-triazine-2,4(3H)-dione Maleate] | 93% | 39% | 0/5 | Frequency of Periodic Reduction in Blood Flow Rate, After Admin. [5]: 2.3 ± 1.2; Number of Dead Animals ([6]; 50 mg/kg (p.o.)): 0; Number of Dead Animals ([6]; 200 mg/kg (p.o.)): 0; Number of Dead Animals ([6]; 800 mg/kg (p.o.)): 0 |
| O=C(c1ccc(F)cc1)C1(O)CCN(CCn2c(=O)nc3n(c2=O)CCCC3)CC1 [Example 11, 3-[2-[4-(4-Fluorobenzoyl)-4-hydroxy-piperidin-1-yl]ethyl]-6,7,8,9-tetrahydro-2H-pyrido[1,2-a-]-1,3,5-triazine-2,4(3H)-dione Dihydrochloride Hemihydrate] | 83% | 0% |  |  |
| Cl.Cl.O=c1nc2n(c(=O)n1CCN1CCC(=C(c3ccc(F)cc3)c3ccc(F)cc3)CC1)CCCC2 [Example 18, 3-[2-[4-[Bis(4-fluorophenyl)methylene]-piperidin-1-yl]ethyl]-6,7,8,9-tetrahydro-2H-pyrido-[1,2-a]-1,3,5-triazine-2,4(3H)-dione Dihydrochloride] | 93% | 6% | 0/5 |  |
| Cl.Cl.O=c1nc2n(c(=O)n1CCN1CCC(=C(c3ccc(F)cc3)c3ccc(F)cc3)CC1)CCC2 [Example 20, 3-[2-[4-[Bis(4-fluorophenyl)methylene]-piperidin-1-yl]ethyl]-7,8-dihydro-2H,6H-pyrrolo[1,2-a]-1,3,5-triazine-2,4(3H)-dione Dihydrochloride] | 83% | 1% |  |  |
| O=c1nc2sccn2c(=O)n1CCN1CCC(=C(c2ccc(F)cc2)c2ccc(F)cc2)CC1 [Example 21, 3-[2-[4-[Bis(4-fluorophenyl)methylene]piperidin-1-yl]ethyl]-2H-thiazolo-[3.2-a]-1,3,5-triazine-2,4(3H)-dione Hydrochloride] | 93% | 3% |  |  |
| O=c1n(CCN2CCC(=C(c3ccc(F)cc3)c3ccc(F)cc3)CC2)nc2n1CCCCC2 [Example 34, 2-[2-[4-[Bis(4-fluorophenyl)methylene]piperidin-1-yl]ethyl]-2,5,6,7,8,9-hexahydro-3H-1,2,4-triazolo[4,3-a]azepin-3-one Hydrochloride Hemihydrate] | 90% | 3% | 1/4 |  |
| CCO.Cl.O=c1n(CCN2CCC(=C(c3ccccc3)c3ccc(F)cc3)CC2)nc2n1CCCCC2 [Example 36, 2-[2-[4-[(4-Fluorophenyl)(phenyl)methylene]piperidin-1-yl]ethyl]-2,5,6,7,8,9-hexahydro-3H-1,2,4-triazolo[4,3-a]azepin-3-one Hydrochloride Ethanolate] | 84% | 3% | 0/5 |  |
| O=c1n(CCN2CCC(=C(c3ccc(F)cc3)c3ccc(F)cc3)CC2)nc2n1CCCO2 [Example 44, 2-[2-[4-Bis(4-fluorophenyl)methylene]piperidin-1-yl]ethyl]-6,7-dihydro-5H-1,2,4-triazolo[3.4-b1-1,3-oxazin-3(2H)-one Hydrochloride Hemihydrate] | 89% | 2% | 2/5 |  |
| O=C(c1ccc(F)cc1)C1CCN(CCn2nc3ccccn3c2=O)CC1 [Example 49, 2-[2-[4-(4-Fluorobenzoyl)piperidin-1-yl]ethyl]-1,2,4-triazolo[4,3-a]-pyridin-3(2H)-one Hydrochloride Hemihydrate] |  |  | 0/5 | Antagonistic Activity 5-HT2 (%) ([1]; after 180 minutes from the administration): 82%; Antagonistic Activity α1 (%) [7]: 3% |
| Cl.O=C(c1ccc(F)cc1)C1CCN(CCn2nc3n(c2=O)CCCC3)CC1 [Example 51, 2-[2-[4-(4-Fluorobenzoyl)piperidin-1-yl]ethyl]-5,6,7,8-tetrahydro-1,2,4-triazolo[4,3-a]-pyridin-3(2H)-one Hydrochloride] | 95% | 3% | 0/5 |  |
| Cl.O=C(c1ccc(F)cc1)C1(O)CCN(CCn2nc3n(c2=O)CCCC3)CC1 [Example 63, 2-[2-[4-(4-Fluorobenzoyl)-4-hydroxypiperidin-1-yl]ethyl]-5,6,7,8-tetrahydro-1,2,4-triazolo[4,3-a]pyridin-3(2H)-one Hydrochloride] | 85% | 0% |  |  |
| O=C(c1ccc(Cl)cc1)C1CCN(CCn2nc3n(c2=O)CCCC3)CC1 [Example 75, 2-[2-[4-(4-Chlorobenzoyl)piperidin-1-yl]ethyl]-5,6,7,8-tetrahydro-1,2,4-triazolo[4,3-a]pyridin-3(2H)-one Hydrochloride] | 83% | 17% | 0/3 |  |
| O=C(c1ccc(F)cc1)C1CCN(CCn2c(=O)[nH]c3ccccc3c2=O)CC1 [Ketanserin, reference compound] | 96% | 73% |  | Toxicity (Death Rate) ([4]; mouse, in vivo, po, 200 mg/kg): 5/5 |
| Cc1nc2sccn2c(=O)c1CCN1CCC(=C(c2ccc(F)cc2)c2ccc(F)cc2)CC1 [Ritanserin, reference compound] | 84% | 5% | 3/5 |  |
